The values that follow come from US10876058B2, “Method for prevention of biodeterioration of fuels” (priority 2013, dated 2020).

The subject of data set [1] is environmental bacteria (Pseudomonas, Acinetobacter, Marinobacter, and Dietzia). As to the kind of experiment: Efflux pump blocker growth inhibition in 1:1 fuel-minimal media mixtures. In kind it is cell-based. The note with it: for bacterial growth inhibition: fuel present (FIGS. 8 and 10). The method, then:
(§1) C-capped dipeptide efflux pump blocker, Phe-Arg β-naphthylamide dihydrochloride (MC-207,110) (Sigma Aldrich) was added to the fuel phase and the aqueous (minimal media M9, Bushnell-Haas, or water) phase of 1:1 fuel-minimal media mixtures containing environmental bacteria (Pseudomonas, Acinetobacter, Marinobacter, and Dietzia) at concentrations ranging from 1 to 1×10^9 cells/mL. Phe-Arg β-naphthylamide dihydrochloride was added to the fuel at concentrations of 0 μg/mL, 20 μg/mL, 40 μg/mL, 60 μg/mL, 80 μg/mL, and 100 μg/mL. Control experiments were performed by adding 0 μg/mL to 120 μg/mL of Phe-Arg β-naphthylamide to minimal media containing bacteria and glycerol as the energy source, but not fuel.
(§2) The antimicrobial effect of the efflux pump blocker was established daily by measuring growth through absorbance readings (OD600), DNA quantitation through qPCR, and colony counting techniques.

A short description of data set [2]: Stability in the presence of fuel. In kind it is physicochemical. The conditions noted are these: activity was preserved. The text has this: Additional experimental results (see FIG. 10) confirm that the growth inhibition effect and the inactivity of efflux pump were effective for other bacteria, including Pseudomonas aeruginosa and Acinetobacter venetianus. The c-capped dipeptides were stable in the presence of fuel and activity was preserved.

Another data set has as its system Acinetobacter venetianus. As to the kind of experiment: Efflux pump blocker growth inhibition, Acinetobacter venetianus (FIG. 10). The conditions noted are these: fuel present (FIG. 10). Format: cell-based. The procedure: as §1, §2
Another data set has as its system Pseudomonas aeruginosa. In words: Efflux pump blocker growth inhibition, Pseudomonas aeruginosa (FIG. 10). In kind it is cell-based. The note with it: fuel present (FIG. 10). The procedure:
as §1, §2

For data set [3], the system named is microbial growth in the aqueous phase. In words: Treatment solution administered to jet fuel, microbial growth in the aqueous phase (FIG. 12). Format: cell-based. The note with it: 80 μg/mL final in jet fuel; stock 25 mg/mL in absolute ethanol, DiEGME or water; initial and days one to three (FIG. 12). The procedure: Treatment solutions were prepared, as described above, with 25 mg/mL efflux pump inhibitor in various solvents, including absolute ethanol, DiEGME, and water. The treatment solutions were administrated to jet fuel at a final concentration in fuel of 0 μg/mL, 40 μg/mL, and 80 μg/mL. FIG. 12 illustrates results of the 80 μg/mL treatment on initial measured microbial growth in the aqueous phase as well as microbial growth after one, two, and three days.

The nature of data set [4]: Partition from fuel into the aqueous phase. In kind it is physicochemical. The conditions noted are these: added to fuel (aqueous and fuel phase).
For data set [5], the system named is environmental bacteria (E. coli, Bacillus, and Pseudomonas). As to the kind of experiment: Antimicrobial peptide growth inhibition in 1:1 fuel-growth media mixtures. In kind it is cell-based. The conditions noted are these: for bacteria growth after addition to fuel: added to fuel (aqueous and fuel phase). The method, then: (§3) Protegrin-1 and Magainin-2 antimicrobial peptides were added individually to the fuel phase and the aqueous (minimal media M9, Bushnell-Haas, or water) phase of 1:1 fuel-growth media mixtures containing environmental bacteria (E. coli, Bacillus, and Pseudomonas) at concentrations ranging from 1 to 1×10^9 cells/mL. Magainin 1 and 2 were obtained from Sigma-Aldrich (St. Louis, Mo.). Protegrin-1 was obtained from AnaSpec (Fremont, Calif.) or produced from a transgenic construct containing a fusion between green fluorescent protein (“GFP”) and the Protegrin-1 coding gene. The GFP-Protegrin fusion was purified by affinity chromatography and Protegrin cleaved from the fusion for use, as pure, or as a fusion in the bioassays.
(§4) The antimicrobial peptides were added at the following concentrations: 0 μg/mL, 1 μg/mL, 2.5 μg/mL, 5 μg/mL, 10 μg/mL, 20 μg/mL, 50 μg/mL, 75 μg/mL, 100 μg/mL, and 125 μg/mL in the presence and absence of fuel. Experiments using minimal media with bacteria in the presence of fuel were designed to measure the effect of fuel in combination with the antimicrobial peptide control. Control experiments contained glycerol instead of fuel as the energy source.
(§5) The antimicrobial effect of the peptides was measured every 24 hours for four days after inoculation by measuring growth through absorbance readings (OD600), DNA quantitation through qPCR, and colony counting techniques.

A further data set concerns E. coli. In words: Antimicrobial peptide growth inhibition, E. coli (FIG. 6). In kind it is cell-based. The note with it: absence of fuel. The method, then:
as §3, §4, §5

The subject of the next data set is Pseudomonas. As to the kind of experiment: Antimicrobial peptide growth inhibition, Pseudomonas (FIG. 7). Format: cell-based. The note with it: absence of fuel. The procedure: as §3, §4, §5

Residues, ends and D or L forms follow the SMILES beside them. No end group written: not given here. *: point of attachment. βNA = c1ccc2cc(N*)ccc2c1

Regarding `Cl.Cl.N=C(N)NCCC[C@H](NC(=O)[C@@H](N)Cc1ccccc1)C(=O)Nc1ccc2ccccc2c1` [c-capped dipeptide, Phe-Arg β-naphthylamide dihydrochloride] (H-Phe-Arg-βNA), the bacterial growth inhibition entry is recorded as “Partial bacterial growth inhibition” in [1] (20 μg/mL); “complete growth inhibition” in [1] (40 μg/mL); “complete growth inhibition” in data set [1] (60 μg/mL); “complete growth inhibition” in data set [1] (80 μg/mL); “complete growth inhibition” in data set [1] (100 μg/mL). The “inhibitory effect on bacterial growth” value in data set [1] (fuel not present (glycerol control), concentrations as high as 100 μg/mL (FIG. 9)) was “not observed”. Moreover, the “concentration giving complete growth inhibition for up to 17 days” value in data set [1] (fuel present, up to 17 days (FIG. 11)) is “greater than 80 μg/mL”. In [1] (low concentration (less than 20 μg/mL) every 3 to 4 days), the “microbial growth and proliferation under periodic administration” value is “prevented microbial growth and proliferation”. Also, the “stability in the presence of fuel” value in data set [2] is listed as “stable”. The “growth inhibition effect and inactivity of efflux pump” value with Acinetobacter venetianus and with Pseudomonas aeruginosa was “effective” in each case. The “microbial growth in the aqueous phase” value in data set [3] is on record as “significantly decreased microbial growth”.
With Magainin-2, in data set [4], the “partition between fuel and aqueous phase” value is listed as “partitioned into the aqueous phase”. Besides, the “concentration required to completely inhibit bacteria growth” value in data set [5] (absence of fuel (FIG. 4)) is 125 µg/mL. The “bacteria growth after addition to fuel” value in [5] is “inhibited bacteria growth”.
Take “Protegrin-1 (RGGRLCYCRRRFCVCVGR; ends and bridges not checked; cysteine pairing not given here; UniProt P32194 131-148, looked up) [18 amino acid cysteine-rich β-sheet antimicrobial peptide; from AnaSpec or cleaved from a GFP-Protegrin fusion]”: the “concentration required to completely inhibit growth” value in the data set with E. coli and in the data set on Pseudomonas was 5 µg/mL each time. Further, in data set [4], the “partition between fuel and aqueous phase” value is on record as “partitioned into the aqueous phase”. In addition, the “bacteria growth after addition to fuel” value in [5] was “inhibited bacteria growth”. In addition, the “concentration that prevented microbial growth” value in data set [5] (peptide added directly to the fuel phase) is recorded as “less than or equal to 1 μg/mL”.
